Measured values as given in article PMC7472781, “Inherited and Acquired Determinants of Hepatic CYP3A Activity in Humans” (Frontiers in Genetics, 2020).
Several values for one entry are separate records, joined by “and”; a condition that tells them apart may be missing. Equal entries are not always repeated. Marks after values point to notes of the source that are not given here.

Tests used:
[1] = system: CYP3A; assay: Within- and between-subject variance and genetic component (Kalow) of the 4 CYP3A biomarkers, three occasions; settings: for Genetic component: from intra- and inter-individual variation, independent of twin status, AUC, plasma concentration or 24-h urine Ae
Experimental: (§1) Predefined primary endpoint was midazolam AUC. All concentrations and pharmacokinetic parameters were determined on three independent occasions to compare intra- versus interindividual variation. […] In structural equation modeling of heritability and in the other multifactorial analyses the individual means from the measurements or parameters obtained on the three occasions were used. Using structural equation analysis, variation was separated into additive genetic (A), common environmental (C), and unique environmental (E) effects. The heritability is the proportion of the variance resulting from the genetic effect (A). In order to investigate the genetic, common environmental, and unique environmental effects of the different traits taken into account, the possible correlation between traits were fitted in multivariate ACE, AE, and CE biometrical models using the mcglm package for multivariate regression analysis in R. As an exploratory analysis, we computed the correlation between MZ and DZ twins based on an unstructured (equal mean and variance for MZ and DZ twins) model. In all models, the mean structure for each trait was specified as a linear function of the covariates age and sex.

[2] = system: CYP3A; assay: clinical; settings: for AUC: 0.2 mg midazolam i.v., zero to infinity; for AUC, mean / Intra-individual (between-days) mean coefficient of variation: three occasions; for AUC420: dose to 420 min
Experimental: Midazolam was administered as a 2 min intravenous infusion with a total dose of 0.2 mg. The phenotyping test with midazolam was performed on three different occasions with a time interval of at least 1 week and maximally 3 months.
Pharmacokinetic parameters were estimated by non-compartmental analyses using the WinNonlin software (Pharsight Corporation, Mountain View, United States). The AUC from zero to infinity (AUC), was calculated by the linear/log trapezoidal rule and using the terminal elimination rate constant (lambda z). […] Total plasma clearance (Cl) after administration of midazolam was calculated as the ratio dose over AUC. Time (tmax) and amount of maximum plasma concentration (Cmax) were given as measured and the terminal half-life (t1/2) was calculated as t1/2 = ln(2)/lambda z.

[3] = system: CYP3A; assay: Twin correlations and structural equation modeling (ACE, AE, CE) of heritability of the CYP3A biomarkers; settings: for rdz (correlation between DZ twins) / rmz (correlation between MZ twins): unstructured model
Experimental: as §1

[4] = system: CYP3A; assay: Multifactorial analysis of genetic and environmental effects on the CYP3A probe drugs and biomarkers; settings: in vivo
Experimental: DNA was isolated from whole venous blood by automated solid phase extraction with the EZ1^TM DNA Blood 350 μl Kit using the Bio-robot EZ1^TM (both Qiagen, Hilden, Germany). The CYP3A4^∗1b and ^∗22 alleles as well as the CYP3A5^∗1/^∗3 polymorphism were genotyped by DNA sequencing using fluorescence-labeled dideoxynucleotides and detection via Gene Mapper v3.7 Software® (Applied Biosystems®, Foster City, United States). Zygosity was assessed by analyzing variants in 23 polymorphic genes. Monozygosity was concluded when there were no differences regarding the polymorphisms in both siblings of one twin pair.
as §1

[5] = system: CYP3A; assay: Endogenous CYP3A biomarker in plasma: cholesterol and 4ß-OH-cholesterol (GC-MS, baseline blood samples); settings: for Plasma concentration / Ratio (cholesterol): value (range); for Ratio (cholesterol): plasma
Experimental: Briefly, 10 μl of plasma were spiked with 10 μg of cholesterol-d5 as internal standard. After saponification with 0.5 ml of 1 M NaOH in 90% ethanol at 70°C for 1 h, 250 μl of water were added and the samples extracted with 2 ml of n-hexane. An aliquot of 50 μl of the extract was evaporated to dryness and derivatized with 20 μl of N,O-bis(trimethylsilyl)trifluoroacetamide (BSTFA) for 30 min at room temperature.
Briefly, 1 ml of plasma was spiked with 10 μg of BHT and 50 ng of the internal standard 4ß-hydroxycholesterol-d4 and saponified with 2.5 ml of 1 M NaOH in 90% ethanol at 70°C for 1 h under argon and then extracted with 1 ml of water and 5 ml of chloroform. The chloroform phase was evaporated to dryness in a stream of nitrogen and the residue dissolved in 1 ml of toluene. […] The cartridges were washed with 1 ml of hexane and 10 ml of 2-propanol in hexane (0.5% v/v) and then eluted with 2 ml of 2-propanol in hexane (30% v/v). The eluate was evaporated to dryness in a stream of nitrogen and derivatized with 20 μl of BSTFA for 30 min at room temperature. GC was performed on a J&W DB-5MS column (25 m, 0.2 mm i.d., 0.33 μm film thickness; Agilent) in the splitless mode. For the analysis of cholesterol, the GC oven program started at 150°C and was held for 1 min. […] For the analysis of 4ß-hydroxycholesterol the GC oven program startet at 150°C and was held for 1 min. Temperature was increased with 10°C/min to 250°C, then with 30°C/min to 300°C.

[6] = other studies; ref Diczfalusy et al., 2008; cited from earlier work
[7] = system: CYP3A; assay: Endogenous CYP3A biomarker in 24-h urine: cortisol and 6ß-OH-cortisol (LC-MS-MS); settings: value (range); for Amount in urine: 24 h urine; for Ratio (cortisol): urine
Experimental: Cholesterol and 4ß-OH cholesterol were measured in the baseline blood samples before drug administration. All samples were centrifuged for 10 min (4000 rpm) at 4°C and the plasma was stored at −20°C.
Calibration samples for cholesterol were prepared in isooctane with 10% 2-propanol in the concentration range from 1 to 30 μg. Calibration samples for 4ß-hydroxycholesterol were prepared in isooctane with 0.8% 2-propanol from 5 to 100 ng. […] Calibration samples were worked up as the samples, and analyzed together with the unknown samples. […] The concentration in unknown samples was obtained from the regression line.

[8] = ref Heizmann et al., 1983; cited from earlier work
[9] = system: CYP3A; settings: cited from earlier work; for CYP3A activity increased: in vivo

## OCc1ncc2n1-c1ccc(Cl)cc1C(c1ccccc1F)=NC2 [1-OH-midazolam, 1′-hydroxymidazolam]
[1]
  Genetic component: 0.93 and 0.931
[1]; human, in vivo
  Variation that may be due to genetic factors (from genetic component): up to 93%
[2]; DZ twins, value (range)
  AUC: 73.31 (30.95 – 322.8) μg * min/L
  Ratio 1-OH-midazolam/midazolam (AUC): 0.17 (0.07 – 0.54)
[2]; MZ twins, value (range)
  AUC: 66.88 (33.75 – 195.6) μg * min/L
  Ratio 1-OH-midazolam/midazolam (AUC): 0.15 (0.09 – 0.61)
[2]; all subjects
  AUC, inter-individual range: 30.95 – 322.8 μg∗min/L
  Inter-individual variation in AUC: 10.4 fold
  AUC, mean: 86.2 µg·min/L
[2]
  Intra-individual (between-days) mean coefficient of variation: 12.3%
[3]; ACE model
  C^2 (common environmental effect): 0.21 (0.23)
  H^2 (heritability): 0.73 (0.23)*
  Variation due to additive genetic (inherited) effects: 73%
[3]; AE model
  H^2 (heritability): 0.94 (0.01)*
[3]; CE model
  C^2 (common environmental effect): 0.78 (0.04)*
[3]
  rdz (correlation between DZ twins): 0.59 (0.11)*
  rmz (correlation between MZ twins): 0.94 (0.01)*
[4]
  Coefficient, CYP3A4*22: −12.53
  Coefficient, CYP3A5*3: 29.27
  Coefficient, age: −1.78
  Coefficient, lean body weight: −1.74.
  Coefficient, sex: 11.79
  Coefficient, smoking status: 1.46
  Coefficient, oral contraceptives: −31.33

## CC(C)CCC[C@@H](C)[C@H]1CC[C@H]2[C@@H]3CC=C4[C@@H](O)[C@@H](O)CC[C@]4(C)[C@H]3CC[C@]12C [4ß-OH-cholesterol, 4ß-hydroxycholesterol]
[5]; DZ twins
  Plasma concentration: 23.07 (15.12 – 46.77) ng/ml
[5]; MZ twins
  Plasma concentration: 24.56 (12.59 – 62.96) ng/ml
[5]; all subjects, three occasions
  Plasma concentration, mean: 25.9 ng/mL
[5]; heterozygous carriers of active CYP3A5*1
  Median plasma level: 30.69 ng/mL
[5]; homozygous carriers of CYP3A5*3
  Median plasma level: 23.01 ng/mL
[1]
  Genetic component: 0.812
[1]; human, in vivo
  Variance between subjects (Varb) of plasma concentration: 86.5 ng/mL
[1]; three occasions
  Variance within subjects (Varw) of plasma concentration: 14.3 ng/mL
[6]
  half-life: ≥ 408 h
[3]; ACE model
  C^2 (common environmental effect): 0.22 (0.26)
  H^2 (heritability): 0.56 (0.26)*
  Variation due to additive genetic (inherited) effects: 56%
[3]; AE model
  H^2 (heritability): 0.79 (0.04)*
[3]; CE model
  C^2 (common environmental effect): 0.74 (0.04)*
[3]
  rdz (correlation between DZ twins): 0.53 (0.12)*
  rmz (correlation between MZ twins): 0.79 (0.04)*
[4]; human
  Coefficient, CYP3A4*22: −8.21
  Coefficient, CYP3A5*3: −6.30
  Coefficient, age: 0.16
  Coefficient, sex: −3.32
[4]; human, 0.2 mg
  Coefficient, lean body weight: −0.20
  Coefficient, smoking status: 3.28
  Coefficient, oral contraceptives: −2.57

## CC(C)CCC[C@@H](C)[C@H]1CC[C@H]2[C@@H]3CC=C4C[C@@H](O)CC[C@]4(C)[C@H]3CC[C@]12C [Cholesterol, cholesterol]
[5]; DZ twins
  Ratio (cholesterol): 0.17 (0.12 – 0.25)
  Plasma concentration: 1.38 (0.94 – 2.12) mg/ml
[5]; MZ twins
  Ratio (cholesterol): 0.17 (0.01 – 0.35)
  Plasma concentration: 1.39 (0.86 – 1.99) mg/ml

## C[C@]12CCC(=O)C=C1CC[C@@H]1[C@@H]2[C@@H](O)C[C@@]2(C)[C@H]1CC[C@]2(O)C(=O)CO [Cortisol, cortisol]
[7]; DZ twins
  Amount in urine: 32.14 (11.10 – 90.00) μg
  Ratio (cortisol): 6.75 (3.38 – 18.22)
[7]; MZ twins
  Amount in urine: 35.85 (10.05 – 142.80) μg
  Ratio (cortisol): 6.29 (3.09 – 14.65)

## Cc1ncc2n1-c1ccc(Cl)cc1C(c1ccccc1F)=NC2 [Midazolam, midazolam]
[1]
  Genetic component: 0.612
[1]; human, in vivo
  Variation that may be due to genetic factors (from genetic component): up to 61%
[8]
  Fraction of midazolam eliminated as 1-OH-midazolam: Approximately 75%
[2]; *1/*1 and *1/*1B genotypes (n = 110)
  Median AUC: 439.1 μg ∗ min/L
[2]; DZ twins, value (range)
  AUC: 431.0 (287.8 – 640.7) μg * min/L
  AUC420: 354.8 (240.0 – 542.9) μg * min/L
  tmax: 10 (10 – 19) min
[2]; MZ twins, value (range)
  AUC: 450.3 (290.3 – 897.4) μg * min/L
  AUC420: 378.6 (255.8 – 636.4) μg * min/L
[2]; all subjects
  AUC, inter-individual range: 288 – 897.4 μg∗min/L
  Inter-individual variation in AUC: 3.1 fold
  AUC, mean: 464.0 µg·min/L
[2]; daily fruit consumption
  Median AUC: 425.4 μg ∗ min/L
[2]; heterozygous carriers of CYP3A4*22 (n = 4)
  Median AUC: 595.1 μg ∗ min/L
[2]; human, plasma, intravenous, 0.2 mg
  tmax: 0.167 h
[2]; human, plasma, intravenous, 0.2 mg, Cl, DZ twins, total plasma clearance, value (range)
  clearance: 480 mL/min
[2]; human, plasma, intravenous, 0.2 mg, Cl, DZ twins, value (range)
  clearance: 6.74 mL/min/kg
[2]; human, plasma, intravenous, 0.2 mg, Cl, MZ twins, total plasma clearance, value (range)
  clearance: 450 mL/min
[2]; human, plasma, intravenous, 0.2 mg, Cl, MZ twins, value (range)
  clearance: 6.8 mL/min/kg
[2]; human, plasma, intravenous, 0.2 mg, Clearance, summary in discussion (Table 2)
  clearance: ~500 mL/min
[2]; human, plasma, intravenous, 0.2 mg, DZ twins, value (range)
  Cmax: 3.76 ng/mL
[2]; human, plasma, intravenous, 0.2 mg, MZ twins, value (range)
  Cmax: 4.11 ng/mL
[2]; human, plasma, intravenous, 0.2 mg, Elimination half-life, summary in discussion (Table 2)
  half-life: ~2 h
[2]; human, plasma, intravenous, 0.2 mg, t1/2, DZ twins, terminal half-life, value (range)
  half-life: 3.08 h
[2]; human, plasma, intravenous, 0.2 mg, t1/2, MZ twins, terminal half-life, value (range)
  half-life: 2.72 h
[2]; median
  AUC higher in male than in female subjects: 8%
[2]; one study day, all subjects
  Variation of plasma concentrations between subjects: about 10 fold
[2]; rare fruit consumption
  Median AUC: 519.4 μg ∗ min/L
[2]
  Intra-individual (between-days) mean coefficient of variation: 11.3%
[2]; thrice weekly fruit consumption
  Median AUC: 446.9 μg ∗ min/L
[2]; very rare fruit consumption
  Median AUC: 558.9 μg ∗ min/L
[3]; ACE model
  C^2 (common environmental effect): 0.48 (0.24)*
  H^2 (heritability): 0.15 (0.25)
  Variation attributed to common environmental factors: 48%
  Variation due to additive genetic (inherited) effects: 15%
[3]; AE model
  H^2 (heritability): 0.63 (0.06)*
[3]; CE model
  C^2 (common environmental effect): 0.60 (0.06)*
[3]
  rdz (correlation between DZ twins): 0.52 (0.13)*
  rmz (correlation between MZ twins): 0.66 (0.06)*
[4]; human
  Coefficient, CYP3A4*22: 169.57
  Coefficient, CYP3A5*3: 32.33
  Coefficient, age: −0.60
  Coefficient, sex: 74.51
[4]; human, 0.2 mg
  Coefficient, lean body weight: −7.29
  Coefficient, smoking status: −21.79
  Coefficient, oral contraceptives: −63.18

## NC(=O)N1c2ccccc2C=Cc2ccccc21 [carbamazepin]
[9]
  CYP3A activity increased: up to 10 fold

## CCC(C)n1ncn(-c2ccc(N3CCN(c4ccc(OCC5COC(Cn6cncn6)(c6ccc(Cl)cc6Cl)O5)cc4)CC3)cc2)c1=O (centres unmarked) [itraconazole]
[9]; strong inhibitors, ref Kim et al., 2006, Greenblatt and Harmatz, 2015
  CYP3A activity reduced to: 10%

## CCC1(c2ccccc2)C(=O)NC(=O)NC1=O [phenobarbital]
[9]
  CYP3A activity increased: up to 10 fold
